Drawing on publication PMC7224104 (Molecular Diversity, 2020), this text covers IC50 for eleven compounds.

The target in this test is T1, porcine liver COMT (Sus scrofa, UniProt Q99028).
T1 sequence (Q99028 1-186): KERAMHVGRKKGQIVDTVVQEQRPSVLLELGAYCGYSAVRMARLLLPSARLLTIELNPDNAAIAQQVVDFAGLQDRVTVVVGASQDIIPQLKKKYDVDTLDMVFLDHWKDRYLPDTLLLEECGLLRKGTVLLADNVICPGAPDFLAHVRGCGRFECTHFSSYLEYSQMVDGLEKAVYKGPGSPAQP
Put plainly: biochemical.

As usually defined, the IC50 is the concentration that gives 50% inhibition. A low value points to inhibition by little substance. Consider `Cc1c(O)c(=O)ccn1-c1ccccc1` [Compound 1, 3-Hydroxy-2-methyl-1-phenylpyridin-4-one], for which the IC50 came out at 10.9 ± 1.06 µM.
Compound `Cc1c(O)c(=O)ccn1Cc1ccccc1` [Compound 2, 1-Benzyl-3-hydroxy-2-methylpyridin-4-one] gave an IC50 of 4.55 ± 0.545 µM.
`Cc1c(O)c(=O)ccn1CCc1ccccc1` [Compound 3, 3-Hydroxy-2-methyl-1-(2-phenylethyl)pyridin-4-one]: 15 ± 2.1 µM corresponded to half-maximal inhibition (IC50). This IC50 is about 3.3-fold higher than that of the compound before.
The same measure for `Cc1c(O)c(=O)ccn1CCCc1ccccc1` [Compound 4, 3-Hydroxy-2-methyl-1-(3-phenylpropyl)pyridin-4-one]: 18.4 ± 0.974 µM; for `Cc1c(O)c(=O)ccn1CCCCc1ccccc1` [Compound 5, 3-Hydroxy-2-methyl-1-(4-phenylbutyl)pyridin-4-one]: 9.05 ± 1.25 µM.
In the case of `Cc1c(O)c(=O)ccn1C1CCCCC1` [Compound 6, 1-Cyclohexyl-3-hydroxy-2-methylpyridin-4-one], the concentration for half-maximal inhibition (IC50) came to 12.2 ± 3.06 µM.
Take `Cc1c(O)c(=O)ccn1C1CCCC1` [Compound 7, 1-Cyclopentyl-3-hydroxy-2-methylpyridin-4-one]: the IC50 stood at 19.8 ± 5.86 µM.
As for `Cc1c(O)c(=O)ccn1-c1cccc(Cl)c1` [Compound 8, 1-(3-Chlorophenyl)-3-hydroxy-2-methylpyridin-4-one], half-maximal inhibition (IC50) was put at 11.2 ± 1.01 µM.
`Cc1c(O)c(=O)ccn1-c1ccc(Cl)cc1` [Compound 9, 1-(4-Chlorophenyl)-3-hydroxy-2-methylpyridin-4-one] gave a half-inhibitory concentration (IC50) of 9.31 ± 2.94 µM.
As for `Cc1ccc(Cn2ccc(=O)c(O)c2C)cc1` [Compound 10, 3-Hydroxy-2-methyl-1-(4-methylbenzyl)pyridin-4-one], the IC50 was found to be 5.76 ± 0.664 µM.
The same measure for `Cc1ccc(C(=O)c2cc(O)c(O)c([N+](=O)[O-])c2)cc1` [Tolcapone, reference compound]: 0.0068 µM.
